Results taken from patent publication US11306064B2, “Benzothia(di)azepine compounds and their use as bile acid modulators” (Albireo AB, priority 2018, dated 2022).
pIC50: −log10 of the molar value.

Legend:
Type in all cases: cell-based
HepaRG cells = assay: HepaRG-based assay: 3H-taurocholic acid uptake in differentiated HepaRG cells; details: Homo sapiens, HepaRG, 0.3 μM 3H-taurocholic acid and 7.5 μM cold taurocholic acid, 30 minutes
Procedure: HepaRG-Based Assay Protocol
A cryopreserved vial of differentiated HepaRG cells (Biopredic International HPR116080) was thawed in HepaRG Thawing/Plating/General Purpose Medium (Biopredic International ADD670C) supplemented with 200 mM Glutamax (Gibco 35050061) following the protocol provided by Biopredic International. 70,000 cells per well were seeded in 96-wells plate (Corning CLS3809) in 100 μL of HepaRG Thawing/Plating/General Purpose Medium supplemented with 200 mM Glutamax and incubated at 37° C. in 5% CO2 for 24 hours. Post incubation, the seeding media was replaced by HepaRG Maintenance/Metabolism Medium (Biopredic International ADD620C) and incubated for 6 days, with fresh HepaRG Maintenance/Metabolism Medium replenishment every 48 hours. After 7 days incubation post seeding, incubation media was decanted from the wells and cells were washed two times with 250 μL of William's E Basal Media (Gibco 12551032). After decanting William's E Basal Media each time, plates were tapped against paper towel to ensure maximum removal of residual media.
Incubation mix was prepared by adding test inhibitor dilutions (3-fold serial dilution in DMSO (Sigma D2650)) in William's E media (basal) containing 0.3 μM 3H-taurocholic acid (ARC ART-1368) and 7.5 μM cold taurocholic acid (Sigma T4009) (maintaining 0.2% final DMSO concentration). 50 μl of incubation mix containing test inhibitors was then added to the wells (in duplicate) and the plates were incubated for 30 minutes in 5% CO2 incubator at 37° C. After incubation, the reaction was stopped by keeping the plates on ice water mix for 2-3 minutes and then the incubation mix was aspirated completely from the wells. The wells were washed two times with 250 μL of chilled unlabelled 1 mM taurocholic acid dissolved in HEPES (Gibco 15630080)-buffered (10 mM) HBSS (Gibco 14175079) (pH 7.4). The plates were tapped against a paper towel after every wash to ensure maximum removal of blocking buffer.
100 μL of MicroScint-20 (PerkinElmer 6013621) was added to the wells and kept overnight at room temperature before reading the plates in TopCount NXT™ Microplate Scintillation and Luminescence Counter from PerkinElmer under 3H Test protocol (set at 120 seconds reading time per well, with normal plate orientation).
Preparation of Test Compound Dilutions
All test compounds were provided in powder form at room temperature. 10 mM DMSO stocks of the test compounds were prepared, aliquoted and stored at −20° C. From the 10 mM DMSO stock of the compounds, a 3-fold serial dilution in DMSO was prepared to get a total of 10 dilutions of the test compounds. 0.5 μL of this dilution in DMSO was added to 250 μL of FBS-free basal media containing 3H-taurocholic acid and cold taurocholic acid to prepare the incubation mixture.

Human LBAT = molecular target: T1, Human LBAT (Homo sapiens, UniProt Q14973); assay: LBAT (h/m) assay: 3H-taurocholic acid uptake in human LBAT-overexpressing cells; details: 0.3 μM 3H-taurocholic acid and 7.5 μM cold taurocholic acid, 20 minutes, read-out: hLBAT IC50
T1 construct: expressed in transfected cells; kept under Geneticin selection
T1 sequence (Q14973 1-349): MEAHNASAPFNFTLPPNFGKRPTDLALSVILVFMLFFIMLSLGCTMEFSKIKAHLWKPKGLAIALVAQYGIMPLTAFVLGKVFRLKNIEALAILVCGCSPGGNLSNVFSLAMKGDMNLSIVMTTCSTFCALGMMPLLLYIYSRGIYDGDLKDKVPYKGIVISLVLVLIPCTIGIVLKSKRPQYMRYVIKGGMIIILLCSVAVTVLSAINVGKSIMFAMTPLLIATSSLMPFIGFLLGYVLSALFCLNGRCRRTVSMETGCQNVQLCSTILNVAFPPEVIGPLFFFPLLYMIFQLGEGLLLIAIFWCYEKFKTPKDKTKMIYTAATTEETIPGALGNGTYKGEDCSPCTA
Method in brief: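 LBAT-overexpressing cells, serum-free MEM-alpha, 20 min at 37° C with inhibitor (3-fold, 10-point) plus 0.3 μM 3H-taurocholic acid and cold taurocholic acid (7.5 μM human; 25 μM mouse), 0.2% DMSO. Stopped on ice, washed with 1 mM unlabelled taurocholate; uptake by scintillation counting.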

Human ASBT = molecular target: T2, Human ASBT (Homo sapiens, UniProt Q12908); assay: ASBT (h/m) assay: 3H-taurocholic acid uptake in human ASBT-overexpressing cells; details: 0.25 μM 3H-taurocholic acid and 5 μM cold taurocholic acid, 20 minutes, read-out: hASBT IC50
T2 construct: expressed in transfected cells; kept under Puromycin selection
T2 sequence (Q12908 1-348): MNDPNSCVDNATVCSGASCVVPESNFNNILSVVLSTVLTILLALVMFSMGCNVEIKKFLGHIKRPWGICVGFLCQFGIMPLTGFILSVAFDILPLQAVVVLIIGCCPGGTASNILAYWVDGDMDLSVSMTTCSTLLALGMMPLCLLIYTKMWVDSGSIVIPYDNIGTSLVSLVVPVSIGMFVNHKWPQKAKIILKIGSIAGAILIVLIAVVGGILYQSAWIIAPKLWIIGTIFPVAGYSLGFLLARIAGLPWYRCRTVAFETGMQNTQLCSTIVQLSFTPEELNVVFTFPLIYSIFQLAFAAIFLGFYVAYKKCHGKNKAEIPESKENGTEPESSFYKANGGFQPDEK
Method in brief: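 ASBT-overexpressing cells, seeded 48 h earlier, took up 0.25 µM 3H-taurocholic acid plus 5 µM cold taurocholate for 20 min at 37 °C with inhibitor (10-point 3-fold series, top 10 µM, 0.2% DMSO). Ice stop, washes with cold 1 mM taurocholate in HEPES-HBSS pH 7.4, scintillation counting.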

SMILES	pIC50 (HepaRG cells)	pIC50 (Human LBAT)	pIC50 (Human ASBT)
CCCCC1(CC)CN(c2ccccc2)c2cc(SC)c(O/C=C(\F)C(=O)O)cc2S(=O)(=O)C1 (single isomer, unassigned) [Example 42, (Z)-3-((3-butyl-3-ethyl-7-(methylthio)-1,1-dioxido-5-phenyl-2,3,4,5-tetrahydro-1,5-benzothiazepin-8-yl)oxy)-2-fluoroacrylic acid]	6.42	8.00	6.66
CCCCC1(CCCC)CN(c2ccc(NC(=O)C(C)(C)C)cc2)c2cc(SC)c(O/C=C(\F)C(=O)O)cc2S(=O)(=O)C1 [Example 28, (Z)-3-((3,3-dibutyl-7-(methylthio)-1,1-dioxido-5-(4-pivalamidophenyl)-2,3,4,5-tetrahydro-1,5-benzothiazepin-8-yl)oxy)-2-fluoroacrylic Acid]	7.05	7.89	5.35
CCCCC1(CC)CN(c2ccccc2)c2cc(Cl)c(O/C=C(\F)C(=O)O)cc2S(=O)(=O)C1 (racemic) [Example 46, (Z)-3-((3-butyl-7-chloro-3-ethyl-1,1-dioxido-5-phenyl-2,3,4,5-tetrahydro-1,5-benzothiazepin-8-yl)oxy)-2-fluoroacrylic Acid]	6.23	7.62	7.01
CCCCC1(CC)CN(c2ccccc2)c2cc(SC)c(O/C=C(\F)C(=O)O)cc2S(=O)(=O)C1 (racemic) [Example 41, (Z)-3-((3-butyl-3-ethyl-7-(methylthio)-1,1-dioxido-5-phenyl-2,3,4,5-tetrahydro-1,5-benzothiazepin-8-yl)oxy)-2-fluoroacrylic Acid]	6.47	8.08	7.59
CCCCC1(CCCC)CN(c2ccc(NC(=O)C(C)(C)C)cc2)c2cc(SC)c(O/C=C/C(=O)O)cc2S(=O)(=O)C1 [Example 27, (E)-3-((3,3-dibutyl-7-(methylthio)-1,1-dioxido-5-(4-pivalamidophenyl)-2,3,4,5-tetrahydro-1,5-benzothiazepin-8-yl)oxy)acrylic Acid]	6.46	7.34	5.32
CCCCC1(CC)CN(c2ccccc2)c2cc(Br)c(O/C=C(\F)C(=O)O)cc2S(=O)(=O)C1 (racemic) [Example 63, (Z)-3-((7-bromo-3-butyl-3-ethyl-1,1-dioxido-5-phenyl-2,3,4,5-tetrahydro-1,5-benzothiazepin-8-yl)oxy)-2-fluoroacrylic Acid]	6.45	8.00	7.46
CCCCC1(CCCC)CN(c2ccccc2)c2cc(OC)c(O/C=C/C(=O)O)cc2S(=O)(=O)C1 [Example 14, (E)-3-((3,3-dibutyl-7-methoxy-1,1-dioxido-5-phenyl-2,3,4,5-tetrahydro-1,5-benzothiazepin-8-yl)oxy)acrylic Acid]	5.29	5.85	6.52
CCCCC1(CCCC)CN(c2ccc(NC(=O)C3CCCC3)cc2)c2cc(SC)c(O/C=C/C(=O)O)cc2S(=O)(=O)C1 [Example 37, (E)-3-((3,3-dibutyl-5-(4-(cyclopentanecarboxamido)phenyl)-7-(methylthio)-1,1-dioxido-2,3,4,5-tetrahydro-1,5-benzothiazepin-8-yl)oxy)acrylic Acid]	6.23	7.35	5.70
CCCC[C@]1(CC)CN(c2ccccc2)c2cc(SC)c(O/C=C(\F)C(=O)O)cc2S(=O)(=O)N1 (single isomer, unassigned) [Example 86]	6.28	7.51	7.06
CCCCC1(CCCC)CN(c2ccc(C(=O)NC(C)(C)C)cc2)c2cc(SC)c(O/C=C(\F)C(=O)O)cc2S(=O)(=O)C1 [Example 79, (Z)-3-((3,3-dibutyl-5-(4-(tert-butylcarbamoyl)phenyl)-7-(methylthio)-1,1-dioxido-2,3,4,5-tetrahydro-1,5-benzothiazepin-8-yl)oxy)-2-fluoroacrylic Acid]	6.61	8.10	< 6.00
CCCCC1(CCCC)CN(c2ccc(N)cc2)c2cc(SC)c(O/C=C/C(=O)O)cc2S(=O)(=O)C1 [Example 2, (E)-3-((5-(4-aminophenyl)-3,3-dibutyl-7-(methylthio)-1,1-dioxido-2,3,4,5-tetrahydro-1,5-benzothiazepin-8-yl)oxy)acrylic Acid]	< 5.18	5.85	6.45
CCCCC1(CCCC)CN(c2ccccc2)c2cc(Cl)c(O/C=C(\F)C(=O)O)cc2S(=O)(=O)C1 [Example 53, (Z)-3-((3,3-dibutyl-7-chloro-1,1-dioxido-5-phenyl-2,3,4,5-tetrahydro-1,5-benzothiazepin-8-yl)oxy)-2-fluoroacrylic Acid]	6.10	7.21	6.55
CCCC[C@@]1(CC)CN(c2ccccc2)c2cc(Br)c(O/C=C(\F)C(=O)O)cc2S(=O)(=O)C1 (single isomer, unassigned) [Example 65]	6.58	7.70	7.57
CCCC[C@]1(CC)CN(c2ccccc2)c2cc(Br)c(O/C=C(\F)C(=O)O)cc2S(=O)(=O)C1 (single isomer, unassigned) [Example 64]	6.34	7.55	6.28
CCCCC1(CCCC)CN(c2ccc(NC(=O)OC(C)(C)C)cc2)c2cc(SC)c(O/C=C(\F)C(=O)O)cc2S(=O)(=O)C1 [Example 26, (Z)-3-((5-(4-((tert-butoxycarbonyl)amino)phenyl)-3,3-dibutyl-7-(methylthio)-1,1-dioxido-2,3,4,5-tetrahydro-1,5-benzothiazepin-8-yl)oxy)-2-fluoroacrylic Acid]	6.32	7.28	5.49
CCCCC1(CCCC)CN(c2ccc(NC(=O)CC)cc2)c2cc(SC)c(O/C=C(\F)C(=O)O)cc2S(=O)(=O)C1 [Example 71, (Z)-3-((3,3-dibutyl-7-(methylthio)-1,1-dioxido-5-(4-propionamidophenyl)-2,3,4,5-tetrahydro-1,5-benzothiazepin-8-yl)oxy)-2-fluoroacrylic Acid]	6.53	7.33	< 5.52
CCCCC1(CC)CN(c2ccccc2)c2cc(SC)c(O/C=C/C(=O)O)cc2S(=O)(=O)C1 (racemic) [Example 16, (E)-3-((3-butyl-3-ethyl-7-(methylthio)-1,1-dioxido-5-phenyl-2,3,4,5-tetrahydro-1,5-benzothiazepin-8-yl)oxy)acrylic Acid]	5.99	7.09	7.48
